We go through eight molecules from ChEMBL document CHEMBL1201862, “PubChem BioAssay data set” (2004).

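The compound was tested at five concentrations on cells cultured in 96-well plates, with a 48-hour exposure period. Here, GI50 denotes the concentration required for 50% inhibition of growth.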 Calls of active or inactive are those of the source. Rule as the data show it: active = GI50 up to about 1.1 µM and inactive = higher. Where a SMILES comes first, the peptide text is derived from it.

Holding throughout (experiment): inhibition of tumour cell growth, NCI panel, 48 h
The subject of assay [1] is A498.
In assay [2] the test system is ACHN.
Assay [3] relates to EKVX.
The test system of assay [4] is HCC 2998.
The subject of assay [5] is HCT-116.
The test system of assay [6] is HL-60.
The test system of assay [7] is MCF7.
Assay [8] relates to MDA-MB-231.
In assay [9] the test system is MDA-N.
In assay [10] the test system is Malme-3M.
Assay [11] concerns OVCAR-8.
Assay [12] has as its system SF-268.
Assay [13] relates to SF-295.
Assay [14] concerns SF-539.
For assay [15], the system named is SN12C.
In assay [16] the test system is SNB-19.
The test system of assay [17] is OVCAR-3.
Assay [18] has as its system OVCAR-4.
For assay [19], the system named is U-251.

As for `CC(C)OP(=O)(c1ccccc1)c1ccc2c(c1)OCCOCCOCCOCCO2` (centres undefined), the GI50 in assay [1], in assay [2], in assay [3], in assay [4], in assay [5] and in assay [6] was > 100 µM (inactive) throughout. For the same molecule, the GI50 in assay [7], in [8], in [9], in assay [10], in assay [11] and in assay [12] was > 100 µM (inactive) throughout. For the same molecule, the GI50 in [13], in assay [14], in assay [15] and in assay [16] was > 100 µM (inactive) in each case.
On to `CC1(C)C(C#N)C1C1=C(N2CCOCC2)[C@]2(C)C(OC(=O)c3ccccc3)CC[C@@H]2C1` (some centres undefined), for which the GI50 is > 100 µM (inactive) in assay [1]; > 100 µM (inactive) in assay [2]; > 100 µM (inactive) in [3]; > 100 µM (inactive) in assay [4]; 33.7 µM (inactive) in assay [5]; 72.6 µM (inactive) in assay [7]. Also, the GI50 in assay [8], in assay [9], in [10], in assay [17], in [18] and in assay [11] was > 100 µM (inactive) throughout. Besides, the GI50 in [12], in [13], in assay [14], in assay [15], in assay [16] and in assay [19] was > 100 µM (inactive) in each case.
Turning to `O=P1(N(CCCl)CCCl)Oc2ccc(Cl)cc2C(C(Cl)(Cl)Cl)c2cc(Cl)ccc2O1` (centres undefined), the GI50 in [1] is 24.9 µM (inactive); in assay [2] it was 15.5 µM (inactive); in assay [3], 18.6 µM (inactive); in assay [4] it was 10.9 µM (inactive); in [5], 4.55 µM (inactive); in [6], 4.26 µM (inactive). In addition, the GI50 was 10.4 µM (inactive) in assay [7]; 18.6 µM (inactive) in assay [8]; 16.2 µM (inactive) in assay [9]; 11.4 µM (inactive) in assay [17]; 20.7 µM (inactive) in [18]; 25.5 µM (inactive) in assay [11]. In addition, the GI50 in [12] was 28.2 µM (inactive); in assay [13], 3.68 µM (inactive); in assay [14] it was 14.8 µM (inactive); in assay [15], 16.6 µM (inactive); in assay [19], 13.7 µM (inactive).
Take `COc1ccc2c(-c3ccc(O)cc3)c(Oc3ccc(Cl)cc3)c(=O)oc2c1`: the GI50 in [1] is 6.79 µM (inactive); in assay [2], 8.11 µM (inactive); in [3], 3.14 µM (inactive); in assay [4], 10.8 µM (inactive); in [5], 6.46 µM (inactive); in assay [7], 3.63 µM (inactive). Besides, the GI50 in assay [8] was 5.13 µM (inactive); in [9], 6.34 µM (inactive); in assay [10], 4.76 µM (inactive); in assay [17], 3.57 µM (inactive); in assay [18] it was 5.77 µM (inactive); in [11], > 34 µM (inactive). In addition, the GI50 in [12] is 8.07 µM (inactive); in assay [13] it was 6.43 µM (inactive); in assay [14], 8.26 µM (inactive); in [15] it was 4.6 µM (inactive); in assay [16] it was 3.89 µM (inactive); in assay [19], 6.15 µM (inactive).
`COc1ccccc1C[C@@H]1OC2(C=CC(=O)C=C2)O[C@H]1Cc1ccccc1OC`: the GI50 was 16.9 µM (inactive) in assay [1]; 7.89 µM (inactive) in [2]; 5.65 µM (inactive) in [3]; 1.09 µM (active) in assay [5]; 7.43 µM (inactive) in [6]; 3.96 µM (inactive) in [7]. Further, the GI50 in [8] is 13.8 µM (inactive); in assay [9], 6 µM (inactive); in assay [10], 9.71 µM (inactive); in assay [17] it was 8.09 µM (inactive); in assay [18], 8.38 µM (inactive); in assay [11] it was 1.27 µM (inactive). Besides, the GI50 is 7.35 µM (inactive) in [12]; 11 µM (inactive) in [13]; 8.75 µM (inactive) in assay [14]; 9.64 µM (inactive) in assay [15]; 9.95 µM (inactive) in assay [16]; 10.2 µM (inactive) in [19].
As to `CC1(C)CC(O)CC(C)(C)N1O` [TEMPOL HYDROXYLAMINE], the GI50 in assay [1], in assay [2], in assay [3], in assay [4], in [5] and in [7] was > 100 µM (inactive) each time. Moreover, the GI50 is > 100 µM (inactive) in [8]; > 100 µM (inactive) in assay [9]; > 100 µM (inactive) in [10]; 68.1 µM (inactive) in [17]; > 100 µM (inactive) in assay [11]; > 100 µM (inactive) in assay [12]. Moreover, the GI50 in assay [13], in assay [14], in [15] and in assay [16] was > 100 µM (inactive) in each case.
`Cc1nc(C)c(C(=O)NNC(=O)Cc2ccccc2)cc1C(=O)NNC(=O)Cc1ccccc1`: the GI50 in assay [1], in [2], in assay [3], in assay [4], in assay [5] and in assay [6] was > 100 µM (inactive) in each case. The GI50 in assay [7], in [8], in [9], in assay [17], in assay [18] and in assay [11] was > 100 µM (inactive) throughout. Also, the GI50 in assay [12], in [13], in assay [14], in assay [15], in assay [16] and in [19] was > 100 µM (inactive) in each case.
With `CCC(C)C(NC(=O)C1CCCN1C(=O)C(CC(C)C)NC(=O)C(CC(C)C)NC(=O)C(N)CC(C)C)C(=O)NC(C(=O)NCC(=O)NC(CC(N)=O)C(=O)NC(CC(C)C)C(=O)NC(CC(C)C)C(=O)NC(CC(C)C)C(N)=O)C(C)C` (centres undefined) (H-LLLPIVGNLLL-NH2; configuration not given here), the GI50 in assay [1], in assay [2], in assay [3], in assay [5], in assay [6] and in assay [7] was > 50 µM (inactive) in each case. Moreover, the GI50 in assay [8], in assay [9], in assay [10], in assay [17], in [18] and in assay [11] was > 50 µM (inactive) throughout. Besides, the GI50 in assay [12], in assay [13], in [14], in assay [15], in assay [16] and in assay [19] was > 50 µM (inactive) each time.
